Results on 19 compounds are retold here after ChEMBL document CHEMBL4020833, “A Systematic Exploration of Macrocyclization in Apelin-13: Impact on Binding, Signaling, Stability, and Cardiovascular Effects” (J Med Chem, 2018).

In assay [1] the target is T1, Apelin receptor (Homo sapiens, UniProt P35414).
T1 sequence (P35414 whole entry): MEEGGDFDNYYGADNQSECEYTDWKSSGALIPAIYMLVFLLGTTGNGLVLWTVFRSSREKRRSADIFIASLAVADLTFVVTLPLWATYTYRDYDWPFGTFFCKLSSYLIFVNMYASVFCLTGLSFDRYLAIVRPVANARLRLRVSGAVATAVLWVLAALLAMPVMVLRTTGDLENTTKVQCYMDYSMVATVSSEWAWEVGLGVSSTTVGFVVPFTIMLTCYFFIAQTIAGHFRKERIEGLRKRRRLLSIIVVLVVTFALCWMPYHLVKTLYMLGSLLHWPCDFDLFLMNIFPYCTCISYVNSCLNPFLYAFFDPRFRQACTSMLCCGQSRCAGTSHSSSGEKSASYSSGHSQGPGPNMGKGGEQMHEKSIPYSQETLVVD
The assay is described as follows: Displacement of [125I]-[Nle75, Tyr77] Pyr1-apelin-13 from YFP-tagged human APJ receptor expressed in HEK293 cell membranes after 1 hr by gamma-counting method. A general note: Loss of bound radioactivity is the signal in a displacement assay; it reports binding, not function.

Assay [2] deals with T1, Apelin receptor. Nature of the assay: Activity at human APJ receptor expressed in HEK293 cells assessed as dissociation of Galphai1 from Gbetagamma subunit after 5 mins by BRET assay. It is filed as cell-based. For orientation: In BRET a luciferase serves as donor, and the signal depends on an acceptor being close.
The target in assay [3] is T1, Apelin receptor. Nature of the assay: Activity at GFP10-tagged human APJ receptor expressed in HEK293 cells assessed as induction of RlucII-tagged beta-arrestin-2 recruitment after 30 mins by BRET assay. Format: cell-based. Background: Activated receptors often draw arrestin, which recruitment assays turn into a signal.

pEC50, pKi: −log10 of the molar value. Starred links: 1 amine or outer side, 2 acyl side, 3 side chain; linkers in the order of their positions; H or OH if unused. Positions of bridges follow the written chain, without caps; N, C: chain ends. Non-standard residues stand in square brackets, D forms with d. Residues, ends and D or L forms follow the SMILES beside them. *: point of attachment. X1 = O=C([C@H](CCN(CC=[*:3])S(=O)(=O)c1ccccc1[N+](=O)[O-])N[*:1])[*:2]; X6 = N=C(N)NCCC[C@H](NC(=O)[C@@H]1CCC(=O)N1)C(=O)[C@@H]1CCCN1*; X3 = C=CCN([C@@H](CCCNC(=N)N)C(=O)[*:2])[*:1]; X5 = O=C([C@H](CCNCC=[*:3])N[*:1])[*:2]; AllylGly = C=CC[C@H](N)C(=O)O; pGlu = O=C1CC[C@@H](C(=O)O)N1; Nle = CCCC[C@H](N)C(=O)O; CO = O=C([*:1])[*:2]

In turn, `C=CC[C@H](NC(=O)[C@H](Cc1cnc[nH]1)NC(=O)[C@H](CO)NC(=O)[C@H](CC(C)C)NC(=O)[C@H](CCCNC(=N)N)N(CC=C)C(=O)[C@@H]1CCCN1C(=O)[C@H](CCCNC(=N)N)NC(=O)[C@@H]1CCC(=O)N1)C(=O)NCC(=O)N1CCC[C@H]1C(=O)N[C@@H](CCCC)C(=O)N1CCC[C@H]1C(=O)N[C@@H](Cc1ccccc1)C(=O)O` ([pGlu]RP[X3]LSH[AllylGly]GP[Nle]PF-OH) gave a pKi in assay [1] of 8.57. In addition, the pEC50 in assay [2] was 8.68; in assay [3], 7.04.
`CCCC[C@@H]1NC(=O)[C@@H]2CCCN2C(=O)[C@@H](NC(=O)[C@H](CCCCN)NC(=O)[C@H](Cc2cnc[nH]2)NC(=O)[C@H](CO)NC(=O)[C@H](CC(C)C)NC(=O)[C@H](CCCNC(=N)N)NC(=O)[C@@H]2CCCN2C(=O)[C@H](CCCNC(=N)N)NC(=O)[C@@H]2CCC(=O)N2)CCNC/C=C\C[C@H](C(=O)O)NC(=O)[C@@H]2CCCN2C1=O` gave a pKi in assay [1] (hek293) of 6.69.
In assay [1], `C=CC[C@H](NC(=O)CNC(=O)[C@H](CCCCN)NC(=O)[C@H](Cc1cnc[nH]1)NC(=O)[C@H](CC=C)NC(=O)[C@H](CC(C)C)NC(=O)[C@H](CCCNC(=N)N)NC(=O)[C@@H]1CCCN1C(=O)[C@H](CCCNC(=N)N)NC(=O)[C@@H]1CCC(=O)N1)C(=O)N[C@@H](CCCC)C(=O)N1CCC[C@H]1C(=O)N[C@@H](Cc1ccccc1)C(=O)O` ([pGlu]RPRL[AllylGly]HKG[AllylGly][Nle]PF-OH) had a pKi of 6.71.
Turning to `C=CC[C@H](NC(=O)[C@H](Cc1ccccc1)NC(=O)[C@@H]1CCCN1C(=O)[C@H](CCCC)NC(=O)[C@H](CC=C)NC(=O)CNC(=O)[C@H](CCCCN)NC(=O)[C@H](Cc1cnc[nH]1)NC(=O)[C@H](CO)NC(=O)[C@H](CC(C)C)NC(=O)[C@H](CCCNC(=N)N)NC(=O)[C@@H]1CCCN1C(=O)[C@H](CCCNC(=N)N)NC(=O)[C@@H]1CCC(=O)N1)C(=O)O` ([pGlu]RPRLSHKG[AllylGly][Nle]PF[AllylGly]-OH), in assay [1], the pKi was 6.35.
The same measure, in the same setting: next, `CCCC[C@@H]1NC(=O)[C@@H](NC(=O)CNC(=O)[C@H](CCCCN)NC(=O)[C@H](Cc2cnc[nH]2)NC(=O)[C@H](CO)NC(=O)[C@H](CC(C)C)NC(=O)[C@H](CCCNC(=N)N)NC(=O)N2CCC[C@H]2C(=O)[C@H](CCCNC(=N)N)NC(=O)[C@@H]2CCC(=O)N2)C/C=C\C[C@@H](C(=O)O)NC(=O)[C@H](Cc2ccccc2)NC(=O)[C@@H]2CCCN2C1=O` ({X6-CO}-RLSHKG[AllylGly][Nle]PF[AllylGly]-OH; staple (Z) 7-11): 6.51; `CCCC[C@@H]1NC(=O)[C@@H]2CCCN2C(=O)[C@@H](N)CCN(S(=O)(=O)c2ccccc2[N+](=O)[O-])C/C=C\C[C@@H](C(=O)O)NC(=O)[C@@H]2CCCN2C1=O` (H-[X1]P[Nle]P[AllylGly]-OH; staple (Z) 1-5): under 5.00.
`C=CC[C@H](NC(=O)[C@H](CO)NC(=O)[C@H](CC(C)C)NC(=O)[C@H](CCCNC(=N)N)NC(=O)[C@H](CC=C)NC(=O)[C@H](CCCNC(=N)N)NC(=O)[C@@H]1CCC(=O)N1)C(=O)N[C@@H](CCCCN)C(=O)NCC(=O)N1CCC[C@H]1C(=O)N[C@@H](CCCC)C(=O)N1CCC[C@H]1C(=O)N[C@@H](Cc1ccccc1)C(=O)O` had a negative-log Ki (pKi) in assay [1] of 8.72. Also, the figures for the pEC50 in assay [2] and in assay [3] were 8.04 and 6.56, respectively.
Taken in the same sequence, the figures for `C=CC[C@H](NC(=O)[C@H](CO)NC(=O)[C@H](CC(C)C)NC(=O)[C@H](CCCNC(=N)N)NC(=O)[C@@H]1CCCN1C(=O)[C@H](CCCNC(=N)N)NC(=O)[C@@H]1CCC(=O)N1)C(=O)N[C@@H](CCCCN)C(=O)NCC(=O)N1CCC[C@H]1C(=O)N[C@@H](CC=C)C(=O)N1CCC[C@H]1C(=O)N[C@@H](Cc1ccccc1)C(=O)O` ([pGlu]RPRLS[AllylGly]KGP[AllylGly]PF-OH) were 9.52, 9.00 and 7.38.
Regarding `CCCC[C@H](NC(=O)[C@@H]1CCCN1C(=O)CNC(=O)[C@@H]1C/C=C\C[C@H](NC(=O)[C@@H]2CCCN2C(=O)[C@H](CCCNC(=N)N)NC(=O)[C@@H]2CCC(=O)N2)C(=O)N[C@@H](CC(C)C)C(=O)N[C@@H](CO)C(=O)N[C@@H](Cc2cnc[nH]2)C(=O)N1)C(=O)N1CCC[C@H]1C(=O)N[C@@H](Cc1ccccc1)C(=O)O` ([pGlu]RP[AllylGly]LSH[AllylGly]GP[Nle]PF-OH; staple (Z) 4-8), in assay [1], the pKi was 5.22.
On to `C=CC[C@H](NC(=O)[C@H](CC(C)C)NC(=O)[C@H](CCCNC(=N)N)NC(=O)[C@@H]1CCCN1C(=O)[C@H](CCCNC(=N)N)N(CC=C)C(=O)[C@@H]1CCC(=O)N1)C(=O)N[C@@H](Cc1cnc[nH]1)C(=O)N[C@@H](CCCCN)C(=O)NCC(=O)N1CCC[C@H]1C(=O)N[C@@H](CCCC)C(=O)N1CCC[C@H]1C(=O)N[C@@H](Cc1ccccc1)C(=O)O`, for which the pKi in assay [1] was 8.54. For the same compound, the pEC50 in assay [2] is 8.24; in assay [3] it was 6.63.
In assay [1], `C=CC[C@H](NC(=O)[C@H](CC(C)C)NC(=O)[C@H](CCCNC(=N)N)NC(=O)[C@@H]1CCCN1C(=O)[C@H](CC=C)NC(=O)[C@@H]1CCC(=O)N1)C(=O)N[C@@H](Cc1cnc[nH]1)C(=O)N[C@@H](CCCCN)C(=O)NCC(=O)N1CCC[C@H]1C(=O)N[C@@H](CCCC)C(=O)N1CCC[C@H]1C(=O)N[C@@H](Cc1ccccc1)C(=O)O` showed a pKi of 6.28.
For the compound `CCCC[C@@H]1NC(=O)[C@@H]2CCCN2C(=O)[C@@H](NC(=O)[C@H](CCCCN)NC(=O)[C@H](Cc2cnc[nH]2)NC(=O)[C@H](CO)NC(=O)[C@H](CC(C)C)NC(=O)[C@H](CCCNC(=N)N)NC(=O)[C@@H]2CCCN2C(=O)[C@H](CCCNC(=N)N)NC(=O)[C@@H]2CCC(=O)N2)CCN(S(=O)(=O)c2ccccc2[N+](=O)[O-])C/C=C\C[C@H](C(=O)O)NC(=O)[C@@H]2CCCN2C1=O`, the negative logarithm of the Ki (pKi) in assay [1] (hek293) was 10.00. Also, the figures for the pEC50 in assay [2] (hek293) and in assay [3] (hek293) were 8.77 and 7.20, respectively.
Take `C=CC[C@H](NC(=O)[C@H](Cc1cnc[nH]1)NC(=O)[C@H](CO)NC(=O)[C@H](CC(C)C)NC(=O)[C@H](CCCNC(=N)N)NC(=O)[C@@H]1CCCN1C(=O)[C@H](CCCNC(=N)N)NC(=O)[C@@H]1CCC(=O)N1)C(=O)NCC(=O)N1CCC[C@H]1C(=O)N[C@@H](CCCC)C(=O)N[C@@H](CC=C)C(=O)N[C@@H](Cc1ccccc1)C(=O)O` ([pGlu]RPRLSH[AllylGly]GP[Nle][AllylGly]F-OH): in assay [1], the pKi is 8.64. For the same compound, the pEC50 was 9.10 in assay [2] and 7.24 in assay [3].
In assay [1], `CCCC[C@@H]1NC(=O)[C@@H]2CCCN2C(=O)[C@@H](NC(=O)[C@H](CCCCN)NC(=O)[C@H](Cc2cnc[nH]2)NC(=O)[C@H](CO)NC(=O)[C@H](CC(C)C)NC(=O)[C@H](CCCNC(=N)N)NC(=O)[C@@H]2CCCN2C(=O)[C@H](CCCNC(=N)N)NC(=O)[C@@H]2CCC(=O)N2)CCNC/C=C\C[C@@H](C(=O)O)NC(=O)[C@@H]2CCCN2C1=O` showed a pKi of 6.04.
For `CCCC[C@H](NC(=O)[C@@H]1CCCN1C(=O)[C@@H]1C/C=C\C[C@H](NC(=O)[C@H](CCCNC(=N)N)NC(=O)[C@@H]2CCCN2C(=O)[C@H](CCCNC(=N)N)NC(=O)[C@@H]2CCC(=O)N2)C(=O)N[C@@H](CO)C(=O)N[C@@H](Cc2cnc[nH]2)C(=O)N[C@@H](CCCCN)C(=O)N1)C(=O)N1CCC[C@H]1C(=O)N[C@@H](Cc1ccccc1)C(=O)O` ([pGlu]RPR[AllylGly]SHK[AllylGly]P[Nle]PF-OH; staple (Z) 5-9), the pKi in assay [1] was 7.39.
Compound `CCCC[C@@H]1NC(=O)[C@@H]2CCCN2C(=O)[C@@H](N)CCNC/C=C\C[C@@H](C(=O)O)NC(=O)[C@@H]2CCCN2C1=O` (H-[X5]P[Nle]P[AllylGly]-OH; staple (Z) 1-5) showed a pKi in assay [1] of under 5.00.
With `C=CC[C@H](NC(=O)[C@H](CCCNC(=N)N)NC(=O)[C@@H]1CCCN1C(=O)[C@H](CCCNC(=N)N)NC(=O)[C@@H]1CCC(=O)N1)C(=O)N[C@@H](CO)C(=O)N[C@@H](Cc1cnc[nH]1)C(=O)N[C@@H](CCCCN)C(=O)N[C@@H](CC=C)C(=O)N1CCC[C@H]1C(=O)N[C@@H](CCCC)C(=O)N1CCC[C@H]1C(=O)N[C@@H](Cc1ccccc1)C(=O)O` ([pGlu]RPR[AllylGly]SHK[AllylGly]P[Nle]PF-OH), in assay [1], the pKi was 8.41.
In the case of `C=CC[C@H](NC(=O)[C@H](CCCNC(=N)N)NC(=O)[C@@H]1CCCN1C(=O)[C@H](CCCNC(=N)N)NC(=O)[C@@H](N)CC=C)C(=O)N[C@@H](CO)C(=O)N[C@@H](Cc1cnc[nH]1)C(=O)N[C@@H](CCCCN)C(=O)NCC(=O)N1CCC[C@H]1C(=O)N[C@@H](CCCC)C(=O)N1CCC[C@H]1C(=O)N[C@@H](Cc1ccccc1)C(=O)O`, the pKi in assay [1] is 8.60. Further, the figures for the pEC50 in assay [2] and in assay [3] were 9.40 and 7.46, respectively.
In assay [1], `C=CC[C@H](NC(=O)[C@H](Cc1cnc[nH]1)NC(=O)[C@H](CO)NC(=O)[C@H](CC(C)C)NC(=O)[C@H](CC=C)NC(=O)[C@@H]1CCCN1C(=O)[C@H](CCCNC(=N)N)NC(=O)[C@@H]1CCC(=O)N1)C(=O)NCC(=O)N1CCC[C@H]1C(=O)N[C@@H](CCCC)C(=O)N1CCC[C@H]1C(=O)N[C@@H](Cc1ccccc1)C(=O)O` ([pGlu]RP[AllylGly]LSH[AllylGly]GP[Nle]PF-OH) gave a pKi of 6.31.

What is called pKi is −log10 of the Ki, conventionally taken in molar units. A high value points to a small Ki. What is called pEC50 is the negative decadic logarithm of the EC50, by convention in mol/L.
